pKi: −log10 of the molar value. Values after ≈ are worked out from the molar mass of the structure shown. “Also recorded” adds a separate entry of the source. Where two headings read alike, the source gives them in different places.
Experiments:
[1] = Solubility in EtOAc/heptane mixtures by HPLC; format: physicochemical; conditions: organic solvent or mixture, thermodynamic from solid
Description: Solubility data were generated applying the following protocol: slurries of Compound 1 were prepared and allowed to equilibrate at 20° C. under stirring for about 18 hours. To determine the concentration in supernatant, about 0.1 mL of slurry was sampled with syringe, filtered, weighed, diluted with MeCN, and injected into an HPLC. […] Samples were cooled to 20° C., and solid residues were isolated by filtration on 20-μm PTFE filter, dried under vacuum at 40° C., and submitted to XRPD analysis. Compound 1 peak area for each sample was recorded, and solubility data were calculated using previously determined response factor (245 nm, 1460 mAU*sec/mg/mL, Table 7). The data were combined and visualized on chart with the solubility as function of the percentage of heptane by volume. […] Solubility smoothly decreases with the increase in heptane amount.

dKI mice = assay: SV2A PET imaging of synaptic density in APPNLGF/MAPT (dKI) mouse model; format: in vivo; conditions: 12 months of age, one-month treatment, 3.75 mg/kg q12 oral
Description: The objective of this study was to assess synaptic density of control and Amyloid Precursor Protein carrying NL-G-F mutations/Microtubule-associated protein tau (APP^NLGF/MAPT) (dKI—double knock-in) mice before and after treatment with Compound 1. Vehicle (95% PEG-400/5% Solutol) or Compound 1 at 7.5 mg/kg/day (3.75 mg/kg q12) was given to control and dKI mice for at least 28 days by oral administration.
To further maximize translational relevance, in other studies mice were aged to the point that synapse loss was detectable using SV2A PET. At 12 months of age, synapse density, as measured by hippocampal/brainstem [^18F]SDM-8 SUVR-1, was reduced in dKI mice relative to wild-type.

[2] = Phase I open-label single ascending dose study; format: in vivo, healthy male and female participants; conditions: single oral doses 10-200 mg
Description: This was an open-label, single ascending doses (SAD) study in healthy male and female participants 50 to 80 years of age (inclusive) with no history of cognitive impairment to evaluate the safety of single oral doses of Compound 1.
(§1) Six cohorts of 6 participants each received a single oral dose of Compound 1 in the fasted state at the following dose levels: 10, 40, 70, 100, 150, and 200 mg and then were followed for 7 days; the starting dose of 10 mg was <10% of the 140 mg human equivalent dose (HED) of the rat NOAEL in the GLP 28-day rat study of 15 mg/kg.
Doses were administered in an inpatient setting where all participants were closely monitored prior to discharge on Day 3, with follow-up in-person visits occurring on Days 4 and 7 and a phone call to inquire about general health occurring on Day 5.
Compound 1 administration was carefully monitored within and between cohorts to ensure patient safety and determination of whether to open the next dose cohort was made after all participants in a given cohort had completed the study and all available clinical and safety data were reviewed by the Investigator, Medical Monitor, DSMB, and IND Sponsor.
Following study drug administration, vital signs were monitored every 1 hour for the first 8 hours and then every 3 hours until discharge on Day 3 and an ECG was performed at approximately 6, 24, and 48 hours after drug administration. In order to monitor for changes in consciousness, the Glasgow Coma Scale (GCS) was administered pre-dose and then every 2 hours for the first 8 hours and then every 3 hours until discharge on Day 3. In order to monitor for cognitive or psychiatric side effects, the MOCA, GDS, and NPIQ were administered prior to oral dose administration, again at approximately 6 hours post-dose (approximate peak concentration), and approximately 24 hours post-dose. Adverse events were monitored continuously. Blood was collected for safety laboratory studies prior to drug dose administration and on Days 2 and 3.

mGluR5 [3] = target: T1, mGluR5 (Mus musculus, UniProt Q3UVX5); assay: [18F]FPEB PET displacement, receptor occupancy; format: in vivo, mice; conditions: for receptor occupancy at 3.75 mg/kg: mouse
T1 construct: from tissue; host or cells: brain of living mice
T1 sequence (Q3UVX5 19-1203): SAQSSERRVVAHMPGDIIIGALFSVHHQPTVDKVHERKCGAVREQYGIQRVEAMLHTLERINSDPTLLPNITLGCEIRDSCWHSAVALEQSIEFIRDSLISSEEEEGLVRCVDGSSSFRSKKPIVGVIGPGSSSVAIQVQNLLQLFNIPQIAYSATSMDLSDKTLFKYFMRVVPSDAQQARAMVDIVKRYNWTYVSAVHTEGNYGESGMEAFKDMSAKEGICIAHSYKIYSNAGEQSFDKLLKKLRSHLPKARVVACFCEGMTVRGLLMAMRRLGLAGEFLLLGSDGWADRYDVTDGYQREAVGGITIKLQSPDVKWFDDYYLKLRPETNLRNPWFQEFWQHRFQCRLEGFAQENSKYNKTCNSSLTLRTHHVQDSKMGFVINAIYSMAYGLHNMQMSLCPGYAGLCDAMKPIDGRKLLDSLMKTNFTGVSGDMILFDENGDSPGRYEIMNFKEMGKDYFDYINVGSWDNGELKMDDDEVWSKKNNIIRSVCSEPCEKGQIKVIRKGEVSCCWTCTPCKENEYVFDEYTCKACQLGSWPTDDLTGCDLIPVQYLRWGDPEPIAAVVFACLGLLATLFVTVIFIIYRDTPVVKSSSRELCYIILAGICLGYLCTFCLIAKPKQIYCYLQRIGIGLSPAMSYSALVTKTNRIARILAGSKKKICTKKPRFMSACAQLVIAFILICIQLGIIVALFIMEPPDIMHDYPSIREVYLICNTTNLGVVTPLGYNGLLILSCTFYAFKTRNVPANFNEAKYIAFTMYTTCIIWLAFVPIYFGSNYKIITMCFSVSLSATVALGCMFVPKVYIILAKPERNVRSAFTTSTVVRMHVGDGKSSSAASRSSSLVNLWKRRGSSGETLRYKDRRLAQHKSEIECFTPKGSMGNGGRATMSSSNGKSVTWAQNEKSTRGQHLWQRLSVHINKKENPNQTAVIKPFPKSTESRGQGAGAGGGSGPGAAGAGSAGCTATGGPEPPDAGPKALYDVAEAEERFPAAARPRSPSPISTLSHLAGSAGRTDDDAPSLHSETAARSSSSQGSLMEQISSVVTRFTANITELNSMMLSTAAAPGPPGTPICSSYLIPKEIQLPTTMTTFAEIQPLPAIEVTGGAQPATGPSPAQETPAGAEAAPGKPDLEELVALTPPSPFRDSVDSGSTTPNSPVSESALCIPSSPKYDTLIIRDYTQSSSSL
Description: A mGluR5 PET ligand, [^18F]FPEB, was used to assess receptor occupancy in mice. Mice were dosed orally twice a day with different doses of Compound 1. The available mGluR5 sites in brain were assessed in anesthetized mice both at peak 1 h after a single dose, and at trough after 7 days of twice daily (b.i.d.) oral dosing. The 3.75 mg/kg b.i.d. dose maintains >90% receptor occupancy throughout the dosing period. […] FPEB into the brain of mice. Displacement studies were conducted at expected trough levels and conducted at three dose levels: 0.42, 1.25 and 3.75 mg/kg. The 3.75 mg/kg dose was able to achieve >90% receptor occupancy at trough.

in vivo = assay: in vivo
Description: as §1

[4] = target: aryl hydrocarbon receptor (AhR) (Homo sapiens, UniProt P35869); assay: AhR receptor activation, human; format: in vitro ADME; conditions: at 30 μM
Chain of aryl hydrocarbon receptor (AhR) (P35869 11-848): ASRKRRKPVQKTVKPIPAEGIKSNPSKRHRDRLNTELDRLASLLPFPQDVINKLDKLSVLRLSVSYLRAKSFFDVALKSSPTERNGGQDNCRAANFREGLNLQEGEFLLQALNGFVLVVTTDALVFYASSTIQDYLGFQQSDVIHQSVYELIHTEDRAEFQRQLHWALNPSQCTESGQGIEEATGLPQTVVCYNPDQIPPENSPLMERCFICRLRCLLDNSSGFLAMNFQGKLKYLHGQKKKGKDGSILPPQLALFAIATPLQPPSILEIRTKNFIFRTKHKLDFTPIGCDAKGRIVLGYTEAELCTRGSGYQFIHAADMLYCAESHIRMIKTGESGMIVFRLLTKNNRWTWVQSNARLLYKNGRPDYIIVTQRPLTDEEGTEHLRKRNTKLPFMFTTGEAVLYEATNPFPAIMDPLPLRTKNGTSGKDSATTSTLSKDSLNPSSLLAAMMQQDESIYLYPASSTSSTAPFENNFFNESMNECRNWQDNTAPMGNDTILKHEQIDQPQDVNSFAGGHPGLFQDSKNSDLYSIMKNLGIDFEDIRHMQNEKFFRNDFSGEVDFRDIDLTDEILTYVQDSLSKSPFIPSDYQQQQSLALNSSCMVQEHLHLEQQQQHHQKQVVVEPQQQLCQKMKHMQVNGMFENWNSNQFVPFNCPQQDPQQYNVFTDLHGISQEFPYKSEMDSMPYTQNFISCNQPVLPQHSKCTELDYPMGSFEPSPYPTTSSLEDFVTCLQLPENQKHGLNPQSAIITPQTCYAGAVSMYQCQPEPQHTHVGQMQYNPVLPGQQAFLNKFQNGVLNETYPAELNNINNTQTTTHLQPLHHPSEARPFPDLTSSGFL
Description: The objective of this study was to determine the human and rat pregnane X receptor (PXR) and human and rat aryl hydrocarbon receptor (AhR) receptor activation potential of Compound 1 Form A. The activation of PXR is a marker for induction of CYP3A4/5 and […] and the activation of AhR is a marker for induction of CYP1A.

mGluR5 [5] = target: mGluR5 (Homo sapiens, UniProt P41594); assay: [3H]-MPEPy displacement from mGluR5; format: binding; conditions: read-out: inhibitor constant (Ki) for [3H]-MPEPy displacement from mGluR5
Chain of mGluR5 (Homo sapiens, UniProt P41594) (P41594 21-1212): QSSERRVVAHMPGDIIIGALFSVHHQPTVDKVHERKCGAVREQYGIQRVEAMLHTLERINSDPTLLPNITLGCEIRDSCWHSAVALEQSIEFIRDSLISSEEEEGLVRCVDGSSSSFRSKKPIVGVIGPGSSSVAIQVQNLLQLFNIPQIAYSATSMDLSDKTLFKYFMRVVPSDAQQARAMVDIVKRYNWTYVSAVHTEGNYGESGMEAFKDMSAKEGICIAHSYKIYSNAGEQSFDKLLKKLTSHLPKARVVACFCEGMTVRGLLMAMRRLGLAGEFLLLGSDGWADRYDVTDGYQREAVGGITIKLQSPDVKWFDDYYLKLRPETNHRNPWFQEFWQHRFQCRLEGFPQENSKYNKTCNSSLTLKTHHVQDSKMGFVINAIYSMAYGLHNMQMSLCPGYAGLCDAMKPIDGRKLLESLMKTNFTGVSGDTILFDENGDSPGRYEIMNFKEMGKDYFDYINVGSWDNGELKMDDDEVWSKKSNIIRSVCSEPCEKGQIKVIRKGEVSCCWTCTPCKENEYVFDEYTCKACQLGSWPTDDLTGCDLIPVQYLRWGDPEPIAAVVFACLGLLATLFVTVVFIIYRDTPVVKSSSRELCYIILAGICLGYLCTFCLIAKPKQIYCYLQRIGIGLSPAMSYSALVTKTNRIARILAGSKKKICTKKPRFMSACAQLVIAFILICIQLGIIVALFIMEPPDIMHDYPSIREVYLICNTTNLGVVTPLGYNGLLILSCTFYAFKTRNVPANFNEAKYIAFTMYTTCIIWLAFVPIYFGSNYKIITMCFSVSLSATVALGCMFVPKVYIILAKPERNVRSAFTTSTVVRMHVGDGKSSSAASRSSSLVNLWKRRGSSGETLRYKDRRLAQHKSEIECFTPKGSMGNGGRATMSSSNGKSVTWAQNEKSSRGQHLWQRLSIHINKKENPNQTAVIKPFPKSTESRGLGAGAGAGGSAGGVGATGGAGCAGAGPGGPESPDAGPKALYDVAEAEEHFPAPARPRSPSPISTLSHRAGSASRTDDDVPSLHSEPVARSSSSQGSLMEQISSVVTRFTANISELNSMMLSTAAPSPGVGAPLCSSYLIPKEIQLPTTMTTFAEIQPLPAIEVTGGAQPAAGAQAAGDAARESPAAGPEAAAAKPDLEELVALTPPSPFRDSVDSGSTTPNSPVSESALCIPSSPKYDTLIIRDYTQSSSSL

O=C1N[C@H](c2cncc(C#Cc3ccccc3)c2)[C@@H](c2ccccc2Cl)O1 [Compound 1, (4R,5R)-5-(2-chlorophenyl)-4-(5-(phenylethynyl)pyridin-3-yl)oxazolidin-2-one]
solubility ([1]; EtOAc/heptane 20:80 (% v/v), 20° C.): 2 mg/mL (≈ 5.34 mM) | solubility ([1]; EtOAc/heptane 20:80 (% v/v), 45° C.): 3 mg/mL (≈ 8 mM) | solubility ([1]; EtOAc/heptane 32:68 (% v/v), 20° C.): 6 mg/mL (≈ 16 mM) | solubility ([1]; EtOAc/heptane 32:68 (% v/v), 45° C.): 10 mg/mL (≈ 26.7 mM) | solubility ([1]; EtOAc/heptane 40:60 (% v/v), 20° C.): 11 mg/mL (≈ 29.3 mM) | solubility ([1]; EtOAc/heptane 40:60 (% v/v), 45° C.): 17 mg/mL (≈ 45.4 mM) | solubility ([1]; EtOAc/heptane 50:50 (% v/v), 20° C.): 20 mg/mL (≈ 53.4 mM) | solubility ([1]; EtOAc/heptane 50:50 (% v/v), 45° C.): 34 mg/mL (≈ 90.7 mM) | solubility ([1]; EtOAc/heptane 60:40 (% v/v), 20° C.): 33 mg/mL (≈ 88 mM) | solubility ([1]; EtOAc/heptane 60:40 (% v/v), 45° C.): 61 mg/mL (≈ 163 mM) | solubility ([1]; EtOAc/heptane 70:30 (% v/v), 20° C.): 49 mg/mL (≈ 131 mM) | solubility ([1]; EtOAc/heptane 70:30 (% v/v), 45° C.): 85 mg/mL (≈ 227 mM) | solubility ([1]; EtOAc/heptane 80:20 (% v/v), 20° C.): 69 mg/mL (≈ 184 mM) | solubility ([1]; EtOAc/heptane 80:20 (% v/v), 45° C.): 124 mg/mL (≈ 331 mM) | solubility ([1]; EtOAc/heptane 90:10 (% v/v), 20° C.): 95 mg/mL (≈ 253 mM) | solubility ([1]; EtOAc/heptane 90:10 (% v/v), 45° C.): 177 mg/mL (≈ 472 mM) | solubility ([1]; EtOAc/heptane 100:0 (% v/v), 20° C.): 115 mg/mL (≈ 307 mM) | solubility ([1]; EtOAc/heptane 100:0 (% v/v), 45° C.): 187 mg/mL (≈ 499 mM) | synaptic density, SV2A PET (hippocampal/brainstem [18F]SDM-8 SUVR-1) (dKI mice): fully recovered; also recorded: highly significant increase | clinically significant changes in consciousness (GCS), cognitive or psychiatric side effects (MOCA, GDS, NPIQ) [2]: no evidence | intensity of TEAEs [2]: mild or moderate | deaths, SAEs, severe TEAEs ([2]; 36 participants): no deaths, SAEs, or severe TEAEs | number of TEAEs considered possibly related to treatment ([2]; 36 participants): 8 | tolerability ([2]; fasted, healthy participants 50 to 80 years): well tolerated | free drug above the Ki (mGluR5 [3]; mice, 3.75 mg/kg b.i.d.): 25 fold | free trough drug level (mGluR5 [3]; mice, 3.75 mg/kg b.i.d. oral): 15 nM | receptor occupancy at 3.75 mg/kg (mGluR5 [3]; mice, 3.75 mg/kg b.i.d. oral, read-out: receptor occupancy throughout the dosing period): > 90% | receptor occupancy at 3.75 mg/kg (mGluR5 [3]; mice, 3.75 mg/kg dose, oral, read-out: receptor occupancy at trough): > 90% | doses occupying brain mGluR5 sites below adverse effect levels (mGluR5 [3]; oral, rodent and non-human primate): 250 fold | human equivalent dose (HED) of the rat NOAEL (in vivo): 140 mg | NOAEL at 28 days (in vivo; rat): 15 mg/kg | AhR activation, % of the positive control [4]: 1.11% | mean maximum fold activation of AhR [4]: 1.78 fold | pKi (mGluR5 [5]): 9.22

— patent publication US20250230149A1, “MGLUR5 MODULATING COMPOUNDS, COMPOSITIONS, AND METHODS OF USE” (Allyx Therapeutics, Inc., priority 2022, published 2025)
